Values after ≈ are worked out from the molar mass of the structure shown.
Key:
physchem = conditions: PBS buffer, pH 7.4
[1] = Metabolic stability in mouse liver microsomes assessed as compound remaining at 1 uM after 60 mins
[2] = Metabolic stability in human liver microsomes assessed as compound remaining at 1 uM after 60 mins
[3] = Metabolic stability in mouse liver microsomes assessed as compound remaining at 10 uM after 60 mins
C6 = experiment: Cytotoxicity against rat C6 cells assessed as cell viability
[4] = Metabolic stability in human liver microsomes assessed as compound remaining at 10 uM after 60 mins
[5] = Terminal half life in C57BL/6 mouse plasma at 3 mg/kg, ip; format: ADME, organism-based; parameters: dose 3 mg/kg, route intraperitoneal; conditions: read-out: beta t1/2 (converted)
[6] = target: Prostaglandin E2 receptor EP2 subtype (Homo sapiens) (UniProt P43116); experiment: Competitive antagonist activity at human EP2 receptor expressed in rat C6 cells assessed as parallel rightward shift in PGE2 concentration response curve treated for 10 mins prior to PGE2 challenge for 40 mins by TR-FRET assay; format: cell-based
[7] = Cmax in C57BL/6 mouse at 3 mg/kg, iv; format: ADME, organism-based; parameters: dose 3 mg/kg, route intravenous; conditions: in vivo
in vivo [8] = conditions: C57BL/6, mouse, po, 10 mg/kg
in vivo [9] = conditions: C57BL/6, mouse, ip, 5 mg/kg
[10] = Ratio of drug level in brain to plasma in C57BL/6 mouse at 5 mg/kg, ip measured after 1 to 2 hrs
[11] = Ratio of drug level in brain to plasma in C57BL/6 mouse at 10 mg/kg, po measured after 1 to 2 hrs

Chain of Prostaglandin E2 receptor EP2 subtype (Homo sapiens) (P43116 whole entry): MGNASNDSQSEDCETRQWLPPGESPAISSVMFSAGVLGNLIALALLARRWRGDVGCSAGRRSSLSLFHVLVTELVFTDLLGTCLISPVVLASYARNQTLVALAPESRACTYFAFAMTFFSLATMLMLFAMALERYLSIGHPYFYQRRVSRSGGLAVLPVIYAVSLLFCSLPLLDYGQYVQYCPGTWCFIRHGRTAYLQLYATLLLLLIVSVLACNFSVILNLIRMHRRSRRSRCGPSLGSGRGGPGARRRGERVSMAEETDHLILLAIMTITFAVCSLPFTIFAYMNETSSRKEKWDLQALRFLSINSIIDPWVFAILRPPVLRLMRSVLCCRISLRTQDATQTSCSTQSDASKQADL

In the case of `Cc1cc2ccccc2n1CCNC(=O)/C=C/c1ccc(OCCCN(C)C)cc1`, the solubility kinetic (physchem) is reported as 306 µM (≈ 124 µg/mL).
In the case of `COc1cc(/C=C/C(=O)NCCn2c(C)cc3ccccc32)cc(OC)c1`, the solubility kinetic (physchem) is reported as under 25 µM.
Work on `COc1cc(/C=C/C(=O)NCCc2c(C)[nH]c3ccccc23)cc(OC)c1OC` yielded a remaining at 1 h, 1 µM [1] of 0%, a remaining at 1 h, 1 µM [2] of 0.8% and a remaining at 1 h, 10 µM [3] of 0.2%. It also gave a CC50 (C6) of 59.5 µM, a remaining at 1 h, 10 µM [4] of 5.8% and a solubility kinetic (physchem) of 43 µM (≈ 17 µg/mL).
With `COc1ccc(/C=C/C(=O)NCCc2c(C)[nH]c3ccccc23)cc1OC` the remaining at 1 h, 1 µM [1] was 0.2%, the remaining at 1 h, 1 µM [2] was 12.4% and the remaining at 1 h, 10 µM [3] was 0.1%. The CC50 (C6) was 246 µM, the remaining at 1 h, 10 µM [4] was 18.6% and the solubility kinetic (physchem) was 41 µM (≈ 14.9 µg/mL).
Compound `COc1cc(/C=C/C(=O)NCCn2c(CN3CCOCC3)cc3ccccc32)cc(OC)c1OC` has a solubility kinetic (physchem) of 91 µM (≈ 43.6 µg/mL).
For `COc1cc(/C=C/C(=O)NCCn2c(C(F)(F)F)cc3ccccc32)cc(OC)c1OCCO`, the CC50 (C6) was 31.2 µM and the solubility kinetic (physchem) was 35 µM (≈ 16.7 µg/mL).
In the case of `Cc1cc(/C=C/C(=O)NCCn2c(C)cc3ccccc32)cc(C)c1F`, the remaining at 1 h, 1 µM [1] is reported as 18.3%, the half-life [5] is reported as 34.8 min and the remaining at 1 h, 1 µM [2] is reported as 20.9%. For the same compound, the remaining at 1 h, 10 µM [3] was 13%, the CC50 (C6) was 368 µM and the remaining at 1 h, 10 µM [4] was 24%. For the same compound, the solubility kinetic (physchem) was under 25 µM.
`COc1cc(/C=C/C(=O)NCCn2c(CNC3CCN(C)CC3)cc3ccccc32)cc(OC)c1OC` gave a solubility kinetic (physchem) of 180 µM (≈ 91.2 µg/mL).
Work on `COc1cc(/C=C/C(=O)NCCc2c(C)[nH]c3c(F)cc(F)cc23)cc(OC)c1OC` yielded a solubility kinetic (physchem) of under 25 µM.
In the case of `Cc1cc2ccccc2n1CCNC(=O)/C=C/c1ccc(OCCN(C)C)cc1`, the solubility kinetic (physchem) is reported as 90 µM (≈ 35.2 µg/mL).
For `COc1cc(/C=C/C(=O)NCCc2n[nH]c3ccccc23)cc(OC)c1OC`, the solubility kinetic (physchem) was 152 µM (≈ 58 µg/mL).
`Cc1cc2ccccc2n1CCNC(=O)/C=C/c1ccc(OCCCO)cc1` gave a CC50 (C6) of 36.6 µM and a solubility kinetic (physchem) of 66 µM (≈ 25 µg/mL).
Compound `Cc1[nH]c2ccccc2c1CCNC(=O)/C=C/c1ccc(OCCO)c(OCCO)c1` has a remaining at 1 h, 1 µM [1] of 7.1%, a remaining at 1 h, 1 µM [2] of 58.5% and a remaining at 1 h, 10 µM [3] of 19.3%. For the same compound, the CC50 (C6) was 126 µM, the remaining at 1 h, 10 µM [4] was 70.4% and the solubility kinetic (physchem) was 235 µM (≈ 99.8 µg/mL).
Work on `COc1cc(/C=C/C(=O)NCCn2c(C)cc3ccccc32)cc(OC)c1OCCN(C)C` yielded a solubility kinetic (physchem) of 180 µM (≈ 81.3 µg/mL).
Compound `Cc1cc(/C=C/C(=O)NCCc2c(C)[nH]c3ccccc23)cc(C)c1F` has a remaining at 1 h, 1 µM [1] of 0.1%, a remaining at 1 h, 1 µM [2] of 0.4% and a remaining at 1 h, 10 µM [3] of 51.7%. The CC50 (C6) was 317 µM, the remaining at 1 h, 10 µM [4] was 21.4% and the solubility kinetic (physchem) was under 25 µM.
`Cc1cc2ccccc2n1CCNC(=O)/C=C/c1ccc(OCCO)cc1` showed a CC50 (C6) of 81.7 µM and a solubility kinetic (physchem) of 68 µM (≈ 24.8 µg/mL).
In the case of `COc1cc(/C=C/C(=O)NCCn2c(C)cc3ccccc32)cc(OC)c1OCCO`, the CC50 (C6) is reported as 43.3 µM, the Kb [6] is reported as 6.7 nM and the inhibition [6] is reported as “Dose-dependent effect”. For the same compound, the solubility kinetic (physchem) was 66 µM (≈ 28 µg/mL).
With `O=C(/C=C/c1ccc(OCCO)c(OCCO)c1)NCCn1c(C(F)(F)F)cc2ccccc21` the solubility kinetic (physchem) was 67 µM (≈ 32.1 µg/mL).
`COc1cc(/C=C/C(=O)NCCn2c(C)c(CN3CCCCC3)c3ccccc32)cc(OC)c1OC` showed a solubility kinetic (physchem) of 75 µM (≈ 36.9 µg/mL).
For `COc1cc(/C=C/C(=O)NCCn2c(C)cc3ccccc32)cc(OC)c1OC`, the remaining at 1 h, 1 µM [1] was 0.2%, the Cmax [7] was 2400 ng/mL and the remaining at 1 h, 1 µM [2] was 0.1%. For the same compound, the remaining at 1 h, 10 µM [3] was 4.8%, the CC50 (C6) was 172 µM and the remaining at 1 h, 10 µM [4] was 10.6%. The solubility kinetic (physchem) was 45 µM (≈ 17.8 µg/mL).
In the case of `COc1cc(/C=C/C(=O)NCCn2c(C)c(CN(C)C)c3ccccc32)cc(OC)c1OC`, the solubility kinetic (physchem) is reported as 110 µM (≈ 49.7 µg/mL).
With `Cc1cc2ccccc2n1CCNC(=O)/C=C/c1ccc(OCCO)c(OCCO)c1` the Cmax (in vivo [8]) was 128 ng/mL, the remaining at 1 h, 1 µM [1] was 1.7% and the Cmax (in vivo [9]) was 1510 ng/mL. The Kp [10] was under 0.1, the remaining at 1 h, 1 µM [2] was 16.2% and the remaining at 1 h, 10 µM [3] was 8.7%. It also gave a CC50 (C6) of 92.3 µM, a solubility kinetic (physchem) of 153 µM (≈ 64.9 µg/mL) and a Kp [11] of under 0.1.
